Measured values as given in patent US8796457B2, “Compound useful for the treatment of degenerative and inflammatory diseases” (Galapagos NV, priority 2009, dated 2014).

Experiments:
[1] = Microsomal stability, human; format: in vitro ADME; details: human liver microsomes, 3 μM compound, 37° C.
Method: A 10 mM stock solution of compound in DMSO was diluted 1000 fold in a 182 mM phosphate buffer pH7.4 in a 96 deep well plate (Greiner, Cat no. 780285) and pre-incubated at 37° C.
40 μL of deionised water was added to a well of a polypropylene Matrix 2D barcode labelled storage tube (Thermo Scientific) and pre-incubated at 37° C.
A Glucose-6-phophate-dehydrogenase (G6PDH) working stock solution was prepared in 182 mM phosphate buffer pH7.4 and placed on ice before use. A co-factor containing MgCl2, glucose-6-phosphate and NADP+ was prepared in deionised water and placed on ice before use. […]
These plates were sealed with sealing mats (MA96RD-04S) of www.kinesis.co.uk and samples were measured at room temperature on LCMS (ZQ 1525 from Waters) under optimized conditions using Quanoptimize to determine the appropriate mass of the parent molecule.
The samples were analyzed on LCMS with a flow rate of 1 mL/min. […]
Peak area from the parent compound at time 0 was considered to be 100% remaining. The percentage remaining after 1 hour incubation was calculated from time 0 and was calculated as the percentage remaining. […]
The data on microsomal stability are expressed as a percentage of the total amount of compound remaining after 60 minutes.

[2] = Caco2 permeability (bi-directional); format: in vitro ADME; details: human, pH 7.4
Method: Bi-directional Caco-2 assays were performed as described below. Caco-2 cells were obtained from European Collection of Cell Cultures (ECACC, cat 86010202) and used after a 21 day cell culture in 24-well Transwell plates (Fisher TKT-545-020B).
2×10^5 cells/well were seeded in plating medium consisting of DMEM+GlutaMAXI+1% NEAA+10% FBS (FetalClone II)+1% Pen/Strep. The medium was changed every 2-3 days.
Test and reference compounds (propranolol and rhodamine123 or vinblastine, all purchased from Sigma) were prepared in Hanks' Balanced Salt Solution containing 25 mM HEPES (pH7.4) and added to either the apical (125 μL) or basolateral (600 μL) chambers of the Transwell plate assembly at a concentration of 10 μM with a final DMSO concentration of 0.25%.
50μM Lucifer Yellow (Sigma) was added to the donor buffer in all wells to assess integrity of the cell layers by monitoring Lucifer Yellow permeation. […]
Lucifer yellow was measured with a Spectramax Gemini XS (Ex 426 nm and Em 538 nm) in a clean 96 well plate containing 150 μL of liquid from basolateral and apical side.
Concentrations of compound in the samples were measured by high performance liquid-chromatography/mass spectroscopy (LC-MS/MS).
The Efflux ratios, as an indication of active efflux from the apical cell surface, were calculated using the ratio of PappB>A/Papp A>B.

## CC1(C)CN(C(=O)c2ccc(-c3cccc4nc(NC(=O)C5CC5)nn34)cc2)C1 [Compound 1, Cyclopropanecarboxylic acid{5-[4-(3,3-dimethyl-azetidine-1-carbonyl)-phenyl]-[1,2,4]triazolo[1,5-a]pyridin-2-yl}-amide]
[1]
  Microsomal stability, percentage of compound remaining after 60 minutes, Human: 76-100%
[2]; Caco-2, 10 μM, 1 hour, pH7.4
  Papp at 1 h, 10 μM: 7.8 ± 0.8 ×10⁻⁶ cm/s
[2]; Caco-2, Papp B>A / Papp A>B
  efflux ratio at 1 h, 10 μM: 6.1 ± 0.6
